# Experimental data published in article PMC11851430, “Workflow for E3 Ligase Ligand Validation for PROTAC Development” (ACS Chemical Biology, 2025).
# How the values were obtained:
# Assay in all cases: DSF assay
# Format in all cases: binding
# Settings in all cases: 20 µM compound
# [1] = target: T1, DYRK2A (Homo sapiens, UniProt Q92630)
# T1 construct: purchased in-house DSF panel (SGC-style construct names; the trailing A/B is a construct suffix)
# T1 sequence (Q92630 146-552): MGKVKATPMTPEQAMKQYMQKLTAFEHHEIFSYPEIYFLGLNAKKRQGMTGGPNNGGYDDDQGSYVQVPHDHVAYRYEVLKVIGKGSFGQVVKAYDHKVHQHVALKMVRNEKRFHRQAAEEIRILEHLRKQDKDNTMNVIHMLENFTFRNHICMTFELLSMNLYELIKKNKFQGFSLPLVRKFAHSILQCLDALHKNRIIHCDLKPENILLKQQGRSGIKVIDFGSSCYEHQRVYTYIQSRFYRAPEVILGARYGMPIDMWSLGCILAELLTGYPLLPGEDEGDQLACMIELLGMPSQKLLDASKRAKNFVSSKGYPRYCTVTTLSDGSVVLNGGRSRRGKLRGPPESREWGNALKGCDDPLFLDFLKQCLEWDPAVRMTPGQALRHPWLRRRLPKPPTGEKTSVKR
# [2] = target: T2, GSK3BB (Homo sapiens, UniProt P49841)
# T2 construct: purchased in-house DSF panel (SGC-style construct names; the trailing A/B is a construct suffix)
# T2 sequence (P49841 35-386): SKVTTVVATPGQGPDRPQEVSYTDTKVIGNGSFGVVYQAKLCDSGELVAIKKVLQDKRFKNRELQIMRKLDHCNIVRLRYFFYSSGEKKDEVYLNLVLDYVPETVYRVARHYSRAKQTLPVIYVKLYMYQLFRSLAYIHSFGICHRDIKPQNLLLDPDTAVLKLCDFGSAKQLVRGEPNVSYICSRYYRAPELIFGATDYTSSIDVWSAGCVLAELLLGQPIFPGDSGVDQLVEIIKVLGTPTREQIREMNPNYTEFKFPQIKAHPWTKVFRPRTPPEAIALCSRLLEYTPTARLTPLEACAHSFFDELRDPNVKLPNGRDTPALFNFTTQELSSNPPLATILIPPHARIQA
# [3] = target: T3, AAK1A (Homo sapiens, UniProt Q2M2I8)
# T3 construct: purchased in-house DSF panel (SGC-style construct names; the trailing A/B is a construct suffix)
# T3 sequence (Q2M2I8 27-365): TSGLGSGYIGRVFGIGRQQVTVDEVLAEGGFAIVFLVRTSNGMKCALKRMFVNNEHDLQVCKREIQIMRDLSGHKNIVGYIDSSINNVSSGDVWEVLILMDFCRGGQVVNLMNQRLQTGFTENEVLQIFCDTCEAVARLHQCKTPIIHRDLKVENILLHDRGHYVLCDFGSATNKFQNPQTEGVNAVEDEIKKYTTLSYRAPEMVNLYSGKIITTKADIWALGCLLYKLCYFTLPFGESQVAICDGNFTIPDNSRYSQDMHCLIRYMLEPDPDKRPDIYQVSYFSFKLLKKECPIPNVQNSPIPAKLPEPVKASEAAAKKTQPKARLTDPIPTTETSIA
# [4] = target: T4, STK10A (Homo sapiens, UniProt O94804)
# T4 construct: purchased in-house DSF panel (SGC-style construct names; the trailing A/B is a construct suffix)
# T4 sequence (O94804 18-317): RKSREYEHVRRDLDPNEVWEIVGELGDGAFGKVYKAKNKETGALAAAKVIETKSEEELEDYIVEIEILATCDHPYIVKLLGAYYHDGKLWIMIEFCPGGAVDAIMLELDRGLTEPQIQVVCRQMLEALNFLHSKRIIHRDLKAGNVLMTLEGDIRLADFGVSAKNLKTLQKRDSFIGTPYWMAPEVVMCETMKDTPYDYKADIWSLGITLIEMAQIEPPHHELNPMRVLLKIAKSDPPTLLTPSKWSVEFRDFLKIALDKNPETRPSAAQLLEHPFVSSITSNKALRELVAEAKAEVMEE
# [5] = target: T5, BRAFA (Homo sapiens, UniProt P15056)
# T5 construct: purchased in-house DSF panel (SGC-style construct names; the trailing A/B is a construct suffix)
# T5 sequence (P15056 448-723): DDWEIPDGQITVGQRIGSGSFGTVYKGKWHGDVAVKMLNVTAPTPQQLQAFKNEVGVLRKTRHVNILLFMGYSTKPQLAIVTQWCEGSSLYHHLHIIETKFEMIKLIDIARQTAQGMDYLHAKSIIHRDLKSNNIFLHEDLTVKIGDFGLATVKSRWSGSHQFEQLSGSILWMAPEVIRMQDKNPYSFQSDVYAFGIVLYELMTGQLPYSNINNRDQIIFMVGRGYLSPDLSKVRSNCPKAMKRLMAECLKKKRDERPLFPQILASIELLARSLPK
# [6] = system: BRPF1A
# [7] = target: T6, FGFR1B (Homo sapiens, UniProt P11362)
# T6 construct: purchased in-house DSF panel (SGC-style construct names; the trailing A/B is a construct suffix)
# T6 sequence (P11362 456-767): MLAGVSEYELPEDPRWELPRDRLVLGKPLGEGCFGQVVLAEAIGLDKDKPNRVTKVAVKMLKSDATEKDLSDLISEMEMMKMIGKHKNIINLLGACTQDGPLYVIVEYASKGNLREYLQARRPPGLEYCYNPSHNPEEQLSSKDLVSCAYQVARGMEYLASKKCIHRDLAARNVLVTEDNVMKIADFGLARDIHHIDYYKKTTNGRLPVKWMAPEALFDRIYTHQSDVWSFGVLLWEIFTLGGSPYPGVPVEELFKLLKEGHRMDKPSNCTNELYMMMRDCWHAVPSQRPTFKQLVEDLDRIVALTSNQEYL
# [8] = target: T7, STK39A (Homo sapiens, UniProt Q9UEW8)
# T7 construct: purchased in-house DSF panel (SGC-style construct names; the trailing A/B is a construct suffix)
# [9] = target: T8, BMXA (Homo sapiens, UniProt P51813)
# T8 construct: purchased in-house DSF panel (SGC-style construct names; the trailing A/B is a construct suffix)
# T8 sequence (P51813 411-675): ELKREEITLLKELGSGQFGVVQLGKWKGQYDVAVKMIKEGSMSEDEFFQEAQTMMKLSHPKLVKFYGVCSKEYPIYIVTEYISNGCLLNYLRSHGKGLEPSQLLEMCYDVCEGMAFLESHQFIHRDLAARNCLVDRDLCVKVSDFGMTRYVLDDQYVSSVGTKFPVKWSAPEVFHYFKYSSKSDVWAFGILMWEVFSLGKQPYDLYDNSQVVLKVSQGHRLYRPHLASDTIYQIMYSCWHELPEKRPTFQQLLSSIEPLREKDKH
# [10] = target: T9, MAPK6 (Homo sapiens, UniProt Q16659)
# T9 construct: purchased in-house DSF panel (SGC-style construct names; the trailing A/B is a construct suffix)
# T9 sequence (Q16659 9-327): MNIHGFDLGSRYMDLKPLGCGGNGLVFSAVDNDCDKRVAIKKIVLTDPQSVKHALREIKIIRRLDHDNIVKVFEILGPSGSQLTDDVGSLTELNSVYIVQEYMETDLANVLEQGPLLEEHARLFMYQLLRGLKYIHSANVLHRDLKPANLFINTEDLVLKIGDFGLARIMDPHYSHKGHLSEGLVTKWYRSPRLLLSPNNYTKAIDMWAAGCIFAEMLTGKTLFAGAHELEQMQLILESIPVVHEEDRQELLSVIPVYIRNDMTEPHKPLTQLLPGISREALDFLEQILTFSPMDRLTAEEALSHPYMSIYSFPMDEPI
# [11] = target: T10, MAPK15A (Homo sapiens, UniProt Q8TD08)
# T10 construct: purchased in-house DSF panel (SGC-style construct names; the trailing A/B is a construct suffix)
# T10 sequence (Q8TD08 1-345): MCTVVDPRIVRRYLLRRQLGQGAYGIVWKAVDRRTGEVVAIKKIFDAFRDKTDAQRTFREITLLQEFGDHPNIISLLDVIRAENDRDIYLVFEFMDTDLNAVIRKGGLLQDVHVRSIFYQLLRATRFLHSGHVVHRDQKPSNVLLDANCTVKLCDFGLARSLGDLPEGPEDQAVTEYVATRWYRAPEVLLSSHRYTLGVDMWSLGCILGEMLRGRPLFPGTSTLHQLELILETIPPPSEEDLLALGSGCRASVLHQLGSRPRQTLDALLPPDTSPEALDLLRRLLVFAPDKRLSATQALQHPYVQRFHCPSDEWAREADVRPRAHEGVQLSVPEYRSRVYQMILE
# [12] = target: T11, CAMK4A (Homo sapiens, UniProt Q16566)
# T11 construct: purchased in-house DSF panel (SGC-style construct names; the trailing A/B is a construct suffix)
# T11 sequence (Q16566 1-473): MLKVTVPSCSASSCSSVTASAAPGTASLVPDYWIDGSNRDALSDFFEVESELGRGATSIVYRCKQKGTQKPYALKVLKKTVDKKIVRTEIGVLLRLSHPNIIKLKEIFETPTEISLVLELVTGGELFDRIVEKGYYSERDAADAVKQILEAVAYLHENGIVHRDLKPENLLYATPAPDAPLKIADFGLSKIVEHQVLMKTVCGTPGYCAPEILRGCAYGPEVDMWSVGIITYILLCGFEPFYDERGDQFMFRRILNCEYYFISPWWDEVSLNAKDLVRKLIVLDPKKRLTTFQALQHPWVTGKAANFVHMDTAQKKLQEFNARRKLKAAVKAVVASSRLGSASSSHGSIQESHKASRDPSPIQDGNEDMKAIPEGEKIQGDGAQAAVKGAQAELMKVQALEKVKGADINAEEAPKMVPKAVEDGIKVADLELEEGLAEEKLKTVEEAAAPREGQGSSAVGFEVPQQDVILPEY
# [13] = target: T12, PAK1A (Homo sapiens, UniProt Q13153)
# T12 construct: purchased in-house DSF panel (SGC-style construct names; the trailing A/B is a construct suffix)
# T12 sequence (Q13153 249-545): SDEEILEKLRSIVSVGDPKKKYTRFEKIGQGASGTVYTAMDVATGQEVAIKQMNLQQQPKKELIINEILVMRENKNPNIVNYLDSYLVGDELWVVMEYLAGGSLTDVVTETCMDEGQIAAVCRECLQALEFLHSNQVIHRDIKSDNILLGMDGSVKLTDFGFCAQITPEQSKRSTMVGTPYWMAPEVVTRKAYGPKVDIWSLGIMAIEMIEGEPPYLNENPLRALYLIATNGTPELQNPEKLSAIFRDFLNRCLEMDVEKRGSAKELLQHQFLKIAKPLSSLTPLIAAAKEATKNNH
# [14] = target: T13, SRCA (Homo sapiens, UniProt P12931)
# T13 construct: purchased in-house DSF panel (SGC-style construct names; the trailing A/B is a construct suffix)
# T13 sequence (P12931 254-536): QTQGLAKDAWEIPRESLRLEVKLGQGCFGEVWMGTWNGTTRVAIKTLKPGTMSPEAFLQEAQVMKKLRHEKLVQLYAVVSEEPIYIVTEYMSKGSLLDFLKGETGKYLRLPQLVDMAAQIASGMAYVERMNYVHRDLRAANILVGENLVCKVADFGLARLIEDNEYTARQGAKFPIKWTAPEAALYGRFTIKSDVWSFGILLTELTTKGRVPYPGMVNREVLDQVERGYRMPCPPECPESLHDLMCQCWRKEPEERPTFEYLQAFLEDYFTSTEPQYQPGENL
# [15] = target: T14, VRK1A (Homo sapiens, UniProt Q99986)
# T14 construct: purchased in-house DSF panel (SGC-style construct names; the trailing A/B is a construct suffix)
# T14 sequence (Q99986 1-396): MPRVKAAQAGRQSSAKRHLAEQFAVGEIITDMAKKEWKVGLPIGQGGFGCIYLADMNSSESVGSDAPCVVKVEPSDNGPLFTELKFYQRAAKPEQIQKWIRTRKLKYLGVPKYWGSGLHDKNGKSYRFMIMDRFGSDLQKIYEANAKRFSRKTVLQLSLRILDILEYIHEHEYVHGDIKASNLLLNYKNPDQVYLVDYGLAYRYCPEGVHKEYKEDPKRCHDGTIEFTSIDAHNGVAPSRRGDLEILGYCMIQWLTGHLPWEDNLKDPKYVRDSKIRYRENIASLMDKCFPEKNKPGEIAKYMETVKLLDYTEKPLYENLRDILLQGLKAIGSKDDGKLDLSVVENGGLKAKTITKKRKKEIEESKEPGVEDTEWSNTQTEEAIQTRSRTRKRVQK
# [16] = target: T15, FGFR2A (Homo sapiens, UniProt P21802)
# T15 construct: purchased in-house DSF panel (SGC-style construct names; the trailing A/B is a construct suffix)
# T15 sequence (P21802 458-770): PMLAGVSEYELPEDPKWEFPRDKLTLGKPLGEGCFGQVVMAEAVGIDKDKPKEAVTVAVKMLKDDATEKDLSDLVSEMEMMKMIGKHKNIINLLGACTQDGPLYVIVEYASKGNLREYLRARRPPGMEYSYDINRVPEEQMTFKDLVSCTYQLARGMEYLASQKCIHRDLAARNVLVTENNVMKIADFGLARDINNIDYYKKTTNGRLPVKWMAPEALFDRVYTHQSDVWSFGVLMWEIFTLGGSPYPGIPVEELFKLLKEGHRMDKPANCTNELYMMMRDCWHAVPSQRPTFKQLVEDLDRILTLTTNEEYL
# [17] = target: T16, GAKA (Homo sapiens, UniProt O14976)
# T16 construct: purchased in-house DSF panel (SGC-style construct names; the trailing A/B is a construct suffix)
# T16 sequence (O14976 14-351): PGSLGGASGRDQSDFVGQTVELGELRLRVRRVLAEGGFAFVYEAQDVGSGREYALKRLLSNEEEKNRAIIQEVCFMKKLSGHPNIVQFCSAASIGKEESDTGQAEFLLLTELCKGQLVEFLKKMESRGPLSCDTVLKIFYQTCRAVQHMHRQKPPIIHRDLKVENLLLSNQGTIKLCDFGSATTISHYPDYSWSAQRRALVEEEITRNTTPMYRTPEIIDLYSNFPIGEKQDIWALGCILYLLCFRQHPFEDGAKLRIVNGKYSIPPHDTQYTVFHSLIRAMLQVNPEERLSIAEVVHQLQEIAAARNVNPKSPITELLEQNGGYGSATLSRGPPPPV
ΔTm at 20 µM [1],ΔTm at 20 µM [2],ΔTm at 20 µM [3],ΔTm at 20 µM [4],ΔTm at 20 µM [5],ΔTm at 20 µM [7],ΔTm at 20 µM [8],ΔTm at 20 µM [9],ΔTm at 20 µM [10],ΔTm at 20 µM [12],ΔTm at 20 µM [13],ΔTm at 20 µM [14],ΔTm at 20 µM [15],ΔTm at 20 µM [16],ΔTm at 20 µM [17],SMILES,ΔTm [6],ΔTm at 20 µM [11]
7.58 °C,14.4 °C,10.1 °C,9.37 °C,1.72 °C,5.22 °C,5.53 °C,2.01 °C,-0.45 °C,3.64 °C,1.05 °C,3.24 °C,0.7 °C,6.36 °C,4.56 °C,CCOC(=O)c1cc(Nc2cc(C3CC3)[nH]n2)nc(Nc2ccc(CC#N)cc2)n1 [compound 5],-0.64 °C,14.8 °C
7.18 °C,14.8 °C,13.2 °C,11.8 °C,1.63 °C,6.61 °C,6.22 °C,5.53 °C,-0.18 °C,2.43 °C,0.92 °C,7.07 °C,0.29 °C,7.61 °C,5.92 °C,CC(C)(C)OC(=O)NCCOCCOCCOCCOCCC(=O)N1CCN(c2cc(Nc3cc(C4CC4)[nH]n3)nc(Nc3ccc(CC#N)cc3)n2)CC1 [4-L],1.15 °C,16.4 °C
7.69 °C,14.2 °C,12.1 °C,7.84 °C,2.09 °C,3.47 °C,6.54 °C,1.62 °C,0.51 °C,5.11 °C,-0.24 °C,2.2 °C,0.51 °C,3.37 °C,3.75 °C,CC(C)(C)OC(=O)NCCCOCCOCCOCCCNC(=O)c1cc(Nc2cc(C3CC3)[nH]n2)nc(Nc2ccc(CC#N)cc2)n1 [5-L],-0.68 °C,17 °C
